Literature values, collected in patent US20090048316A1, “Pharmaceutical composition comprising candesartan cilexetil” (priority 2007, published 2009).
Read-outs that look alike come from different tables or passages of the source.

Compound: CCOc1nc2cccc(C(=O)OC(C)OC(=O)OC3CCCCC3)c2n1Cc1ccc(-c2ccccc2-c2nnn[nH]2)cc1 (racemic) [Candesartan cilexetil, (±)-1-[[(cyclohexyloxy)carbonyl]oxy]ethyl-2-ethoxy-1-[[2′-(1H-tetrazol-5-yl)[1,1′biphenyl]-4-yl]methyl]-1H-benzimidazole-7-carboxylate]
- solubility (in methanol): practically insoluble
- solubility (in water): practically insoluble
